According to PubChem BioAssay AID1259407 (Chemical Carcinogenesis Research Information System (CCRIS), 2018):
The source made the active and inactive calls. How the calls were made is not given here.

System: CCRIS mutagenicity, Ames/micronucleus/aberration tests
Assay: CCRIS mutagenicity studies
[1] = Test System: AMES SALMONELLA TYPHIMURIUM, Strain/Indicator: TA98, Metabolic Activation: NONE, Method: STANDARD PLATE
[2] = Test System: AMES SALMONELLA TYPHIMURIUM, Strain/Indicator: TA100, Metabolic Activation: NONE, Method: STANDARD PLATE

Cc1ccc(C(=O)c2cc(O)c(O)c([N+](=O)[O-])c2)cc1
mutagenic call (Test System: AMES SALMONELLA TYPHIMURIUM, Strain/Indicator: TA97, Metabolic Activation: NONE, Method: PREINCUBATION): inactive; negative
mutagenic call (Test System: AMES SALMONELLA TYPHIMURIUM, Strain/Indicator: TA97, Metabolic Activation: NONE, Method: STANDARD PLATE): inactive; negative
mutagenic call (Test System: AMES SALMONELLA TYPHIMURIUM, Strain/Indicator: TA97, Metabolic Activation: RAT, LIVER, S-9, PHENOBARBITAL AND BETA-NAPHTHOFLAVONE, Method: PREINCUBATION): inactive; negative
mutagenic call (Test System: AMES SALMONELLA TYPHIMURIUM, Strain/Indicator: TA97, Metabolic Activation: RAT, LIVER, S-9, PHENOBARBITAL AND BETA-NAPHTHOFLAVONE, Method: STANDARD PLATE): inactive; negative
mutagenic call (Test System: AMES SALMONELLA TYPHIMURIUM, Strain/Indicator: TA98, Metabolic Activation: NONE, Method: PREINCUBATION): inactive; negative
mutagenic call [1]: inactive; negative
mutagenic call (Test System: AMES SALMONELLA TYPHIMURIUM, Strain/Indicator: TA98, Metabolic Activation: RAT, LIVER, S-9, PHENOBARBITAL AND BETA-NAPHTHOFLAVONE, Method: PREINCUBATION): inactive; negative
mutagenic call (Test System: AMES SALMONELLA TYPHIMURIUM, Strain/Indicator: TA98, Metabolic Activation: RAT, LIVER, S-9, PHENOBARBITAL AND BETA-NAPHTHOFLAVONE, Method: STANDARD PLATE): inactive; negative
mutagenic call (Test System: AMES SALMONELLA TYPHIMURIUM, Strain/Indicator: TA100, Metabolic Activation: NONE, Method: PREINCUBATION): inactive; negative
mutagenic call [2]: inactive; negative
mutagenic call (Test System: AMES SALMONELLA TYPHIMURIUM, Strain/Indicator: TA100, Metabolic Activation: RAT, LIVER, S-9, PHENOBARBITAL AND BETA-NAPHTHOFLAVONE, Method: PREINCUBATION): inactive; negative
mutagenic call (Test System: AMES SALMONELLA TYPHIMURIUM, Strain/Indicator: TA100, Metabolic Activation: RAT, LIVER, S-9, PHENOBARBITAL AND BETA-NAPHTHOFLAVONE, Method: STANDARD PLATE): inactive; negative
mutagenic call (Test System: AMES SALMONELLA TYPHIMURIUM, Strain/Indicator: TA102, Metabolic Activation: NONE, Method: PREINCUBATION): inactive; negative
mutagenic call (Test System: AMES SALMONELLA TYPHIMURIUM, Strain/Indicator: TA102, Metabolic Activation: NONE, Method: STANDARD PLATE): inactive; negative
mutagenic call (Test System: AMES SALMONELLA TYPHIMURIUM, Strain/Indicator: TA102, Metabolic Activation: RAT, LIVER, S-9, PHENOBARBITAL AND BETA-NAPHTHOFLAVONE, Method: PREINCUBATION): inactive; negative
mutagenic call (Test System: AMES SALMONELLA TYPHIMURIUM, Strain/Indicator: TA102, Metabolic Activation: RAT, LIVER, S-9, PHENOBARBITAL AND BETA-NAPHTHOFLAVONE, Method: STANDARD PLATE): inactive; negative
mutagenic call (Test System: AMES SALMONELLA TYPHIMURIUM, Strain/Indicator: TA1535, Metabolic Activation: NONE, Method: PREINCUBATION): inactive; negative
mutagenic call (Test System: AMES SALMONELLA TYPHIMURIUM, Strain/Indicator: TA1535, Metabolic Activation: NONE, Method: STANDARD PLATE): inactive; negative
mutagenic call (Test System: AMES SALMONELLA TYPHIMURIUM, Strain/Indicator: TA1535, Metabolic Activation: RAT, LIVER, S-9, PHENOBARBITAL AND BETA-NAPHTHOFLAVONE, Method: PREINCUBATION): inactive; negative
mutagenic call (Test System: AMES SALMONELLA TYPHIMURIUM, Strain/Indicator: TA1535, Metabolic Activation: RAT, LIVER, S-9, PHENOBARBITAL AND BETA-NAPHTHOFLAVONE, Method: STANDARD PLATE): inactive; negative
mutagenic call (Test System: AMES SALMONELLA TYPHIMURIUM, Strain/Indicator: TA1537, Metabolic Activation: NONE, Method: PREINCUBATION): inactive; negative
mutagenic call (Test System: AMES SALMONELLA TYPHIMURIUM, Strain/Indicator: TA1537, Metabolic Activation: NONE, Method: STANDARD PLATE): inactive; negative
mutagenic call (Test System: AMES SALMONELLA TYPHIMURIUM, Strain/Indicator: TA1537, Metabolic Activation: RAT, LIVER, S-9, PHENOBARBITAL AND BETA-NAPHTHOFLAVONE, Method: PREINCUBATION): inactive; negative
mutagenic call (Test System: AMES SALMONELLA TYPHIMURIUM, Strain/Indicator: TA1537, Metabolic Activation: RAT, LIVER, S-9, PHENOBARBITAL AND BETA-NAPHTHOFLAVONE, Method: STANDARD PLATE): inactive; negative
mutagenic call (Test System: AMES SALMONELLA TYPHIMURIUM, Strain/Indicator: TA1538, Metabolic Activation: NONE, Method: PREINCUBATION): inactive; negative
mutagenic call (Test System: AMES SALMONELLA TYPHIMURIUM, Strain/Indicator: TA1538, Metabolic Activation: NONE, Method: STANDARD PLATE): inactive; negative
mutagenic call (Test System: AMES SALMONELLA TYPHIMURIUM, Strain/Indicator: TA1538, Metabolic Activation: RAT, LIVER, S-9, PHENOBARBITAL AND BETA-NAPHTHOFLAVONE, Method: PREINCUBATION): inactive; negative
mutagenic call (Test System: AMES SALMONELLA TYPHIMURIUM, Strain/Indicator: TA1538, Metabolic Activation: RAT, LIVER, S-9, PHENOBARBITAL AND BETA-NAPHTHOFLAVONE, Method: STANDARD PLATE): inactive; negative
mutagenic call (Test System: CHINESE HAMSTER V-79, Strain/Indicator: V-79 (HPRT)/6-THIOGUANINE, Metabolic Activation: NONE, Method: SUSPENSION/PLATE): inactive; negative
mutagenic call (Test System: CHINESE HAMSTER V-79, Strain/Indicator: V-79 (HPRT)/6-THIOGUANINE, Metabolic Activation: RAT, LIVER, S-9, AROCLOR 1254, Method: SUSPENSION/PLATE): inactive; negative
mutagenic call (Test System: E. COLI, Strain/Indicator: WP2 UVRA, Metabolic Activation: NONE, Method: PREINCUBATION): inactive; negative
mutagenic call (Test System: E. COLI, Strain/Indicator: WP2 UVRA, Metabolic Activation: NONE, Method: STANDARD PLATE): inactive; negative
mutagenic call (Test System: E. COLI, Strain/Indicator: WP2 UVRA, Metabolic Activation: RAT, LIVER, S-9, PHENOBARBITAL AND BETA-NAPHTHOFLAVONE, Method: PREINCUBATION): inactive; negative
mutagenic call (Test System: E. COLI, Strain/Indicator: WP2 UVRA, Metabolic Activation: RAT, LIVER, S-9, PHENOBARBITAL AND BETA-NAPHTHOFLAVONE, Method: STANDARD PLATE): inactive; negative
mutagenic call (Test System: UDS RAT HEPATOCYTES, Strain/Indicator: THY INCORP, Metabolic Activation: NONE, Method: AUTORADIOGRAPHY): inactive; negative

CCOP(=O)(OCC)Oc1cc(C)nc(C(C)C)n1
mutagenic call [1]: inactive; negative
mutagenic call (Test System: AMES SALMONELLA TYPHIMURIUM, Strain/Indicator: TA98, Metabolic Activation: RAT, LIVER, S-9, Method: STANDARD PLATE): inactive; negative
mutagenic call [2]: active; positive
mutagenic call (Test System: AMES SALMONELLA TYPHIMURIUM, Strain/Indicator: TA100, Metabolic Activation: RAT, LIVER, S-9, Method: STANDARD PLATE): inactive; negative

COc1nsc2c(N)cccc12
mutagenic call (Test System: AMES SALMONELLA TYPHIMURIUM, Strain/Indicator: TA98, Metabolic Activation: S-9, Method: STANDARD PLATE): active; positive
